Results: US20190262307A1, “IGURATIMOD AS AN MIF INHIBITOR” (THE FEINSTEIN INSTITUTE FOR MEDICAL RESEARCH, priority 2016, published 2019)

Key:
[1] = system: LPS-treated human peripheral blood monocytes; assay: LPS-induced cytokine release in human monocytes enriched by negative selection; format: cell-based; conditions: for TNFα release: concentrations up to 50 μM
Text: Preparation of Peripheral Blood Cells: Human peripheral blood was collected in sodium heparin (IRB#12-200A) or obtained as Leukopaks from New York Blood Center (New York, N.Y.). Mononuclear cells were isolated by density gradient centrifugation in Ficoll-Paque Plus (GE Healthcare; Pittsburgh, Pa.). Monocytes were either purified by two-hour adherence to Primaria culture plates (Corning Life Sciences; Corning, N.Y.) or enriched by negative magnetic selection using Monocyte Isolation Kit II (Miltenyi Biotech; Auburn, Calif.). All monocyte preps were cultured in RPMI supplemented with 10% human AB serum, 100 units/mL penicillin-streptomycin, and 2 mM L-glutamine and used within 24 hours. Macrophages were differentiated from adherence-purified monocytes by incubation with 10 ng/mL human M-CSF (Sigma) for seven days, with media replenishment performed on days 3 and 5.
Cytokine Production Assays: For LPS-induced cytokine release, negative selection-enriched monocytes (human) or mixed peripheral blood leukocytes (murine) were plated at a density of 2×10^5 cells/mL in 96-well plates. Cells were pre-treated with MIF inhibitors in 0.1% DMSO (final) for 1 hour before stimulation with LPS from E. coli R515 (Axxora; Farmingdale, N.Y.): 24 hours for human cells, 5 hours for murine cells. Cell-free supernatants were collected and stored at −80° C. for cytokine determinations by ELISA; 1:2 dilutions were used for TNFα and 1:3 dilutions for IL-8 and MCP-1.

neonates pups with CDH = assay: Nitrofen congenital diaphragmatic hernia (CDH) model, neonate pups; format: in vivo; conditions: vs Nitrofen group; for VGEF / eNOS phosphorylation: P<0.05
[2] = system: LPS-stimulated human peripheral blood monocytes; conditions: cited from earlier work
[3] = system: C57/BL6 and MIF−/− mice, LPS; assay: Non-lethal endotoxemia, serum TNFα; format: in vivo, mouse; conditions: 90 minutes post-LPS, 20 mg/kg i.p.
Text: Animal Experiments: The Institutional Animal Care and Use Committee of the Feinstein Institute for Medical Research reviewed and approved all animal protocols prior to initiation of experiments. Male BALB/c mice were purchased from the Jackson Laboratory (Bar Harbor, Me.) and used for endotoxemia experiments at ages 8-10 weeks. MIF KO animals were maintained on a C57/BL6 NCr background from Charles River Laboratories (Stone Ridge, N.Y.); these animals were used alongside matched wild-type animals for endotoxemia experiments at ages 8-12 weeks.
Endotoxemia: Endotoxemia was induced by intraperitoneal injection of LPS from E. coli O111:B4 (Sigma). […] Blood was collected by cardiac puncture and allowed to clot 20 minutes at room temperature and 20 minutes at 4° C.; sera were isolated by centrifugation at 300×g for 10 minutes and stored at −20° C. for further analysis by TNFα ELISA (1:3 dilution).

[4] = system: adherence-purified human peripheral blood monocytes; assay: Glucocorticoid synergy in vitro, adherence-purified monocytes; format: cell-based; conditions: LPS
Description: Glucocorticoid Synergy in vitro: The methods of Roger et al. and Kerschbaumer et al. were adapted for these experiments (17, 21). […] Cell-free supernatants were collected and analyzed immediately with a murine TNFα ELISA at a 1:10 dilution. THP-1 cells were plated at a density of 2×10^5 cells/well in a 96-well plate and used the same day with the same treatment conditions as RAW 264.7 cells, except that THP-1 cells were incubated with LPS for 16 hours prior to isolation of cell-free supernatants. Supernatants were analyzed using a human TNFα ELISA at a 1:10 dilution. Human peripheral blood mononuclear cells isolated by adherence (described above) were plated at a density of 2×10^5 cells/well in a 96-well plate and used the same day with the same treatment conditions as THP-1 cells. Supernatants were analyzed using a human TNFα ELISA at a 1:20 dilution. […] Cells were treated under the same conditions as THP-1 cells and supernatants were analyzed using a human TNFα ELISA at a 1:10 dilution.
For all above experiments, cytotoxicity was assessed using an MTT assay (1-2 hour incorporation); no significant cytotoxicity effects were observed under any treatment conditions unless otherwise noted.

[5] = early communications; cited from earlier work
[6] = 1 h pre-treatment, 1 ng/mL LPS 24 h

SMILES: O=C(O/N=C/c1ccc(O)cc1)C1CCCCC1 [OXIM-11]
- TNFα release [1, 6]: almost completely spared
- suppression of the cytokines analyzed (TNFα, MCP-1, IL-8) ([1]; LPS-treated monocytes): minimal suppression

SMILES: CC(C)(C)COC(=O)CC1CC(c2ccc(O)c(F)c2)=NO1 (centres unmarked) [ISO-92]
- MCP-1 release [1, 6]: stronger suppressors of MCP-1 than TNFα
- TNFα release [1, 6]: almost completely spared
- Arginase II (neonates pups with CDH): significantly lower
- VGEF (neonates pups with CDH): significant increase
- eNOS phosphorylation (neonates pups with CDH): significant increase

SMILES: COc1ccc2c(c1)c(CC(=O)O)c(C)n2C(=O)c1ccc(Cl)cc1 [indomethacin]
- IL-1β intracellular accumulation [2]: increases intracellular accumulation
- IL-1β release [2]: inhibits release

SMILES: N[C@H](Cc1cc(I)c(Oc2cc(I)c(O)c(I)c2)c(I)c1)C(=O)O [d-T4]
- IL-8 release [1, 6]: moderate suppression
- TNFα release [1, 6]: almost completely spared

SMILES: Oc1ccc(-c2cnc3ccccn23)cc1O [Compound K-664.1]
- MCP-1 release [1, 6]: stronger suppressors of MCP-1 than TNFα
- TNFα release [1, 6]: moderate suppression

SMILES: COC(=O)CC1CC(c2ccc(O)cc2)=NO1 (centres unmarked) [ISO-1]
- TNFα release [1, 6]: moderate suppression
- Arginase II (neonates pups with CDH): significantly lower
- VGEF (neonates pups with CDH): significant increase
- eNOS phosphorylation (neonates pups with CDH): significant increase

SMILES: CS(=O)(=O)Nc1cc2occ(NC=O)c(=O)c2cc1Oc1ccccc1 [Compound T-614, 3-formylamino-7-methylsulfonylamino-6-phenoxy-4H-1-benzopyran-4-one]
- serum TNFα, MIF−/− mice [3]: no significant effect
- concentration at which TNFα is suppressed (as low as) [4]: ≤ 10 µM
- oral bioavailability [5]: orally bioavailable
